Data from patent US9877960B2 (priority 2012, dated 2018).
“Also recorded” adds a separate entry of the source.

Key:
[1] = tested on: acetylcholine in the hippocampus; assay: Concentration of acetylcholine in the hippocampus of rats by microdialysis; assay type: in vivo, rat; conditions: 200 mg/kg oral once
Source text: It is considered that the hippocampus region of the brain, in which a cholinergic neuron is known to be involved, has a function related to learning and memory. Since cholinergic neuron is impaired in degenerative disease with symptoms such as reduced learning and memory, an increase in the concentration of acetylcholine in the hippocampus will improve the symptoms such as reduced learning and memory. The concentration of acetylcholine in the rat hippocampus was increased about 2.5-fold, as measured by microdialysis, by the active ingredient of the agents of the present invention.
A dialysis probe was embedded in the hippocampus of each rat, and measurement was conducted as in Example 1. 2,5-Piperazinedione,3,6-bis(phenylmethyl)-,(3S,6S) was suspended in 0.5% CMC-Na, and 200 mg/kg was orally administered once. The amount of acetylcholine in 15 μl of perfusion liquid collected immediately before the […] oral administration and every 30 minutes after the oral administration was quantitatively determined by HPLC-ECD. The results obtained within the period from 1 hour before the oral administration to 3 hours after the oral administration are shown in FIG. 3, where the time immediately before the oral administration of the test sample is set to 0 minute. […]

[2] = tested on: serotonin in the prefrontal region; assay: Concentration of serotonin in the prefrontal region of rats by microdialysis; assay type: in vivo, rat
Method: The active ingredient of the agents of the present invention has the effect of increasing the concentration of serotonin in the synaptic cleft via inhibitory activity on SERT binding.
Male SD rats which were 10 to 12 weeks of age were used. The concentration of serotonin in the prefrontal region of each rat was measured in accordance with a published document (Kehr J., and Yoshitake T. (2006) Monitoring brain chemical signals by microdialysis. In: Encyclopedia of Sensors, Vol. 6. (Eds. C. A. Grimes, E. C. Dickey and M. V. Pishko) American Scientific Publishers, USA. 287-312) by microdialysis. Specifically, a dialysis probe was implanted in the prefrontal region of each rat under isoflurane anesthesia. Five days after the implantation surgery, artificial cerebrospinal fluid (148 mM of NaCl, 4 mM of KCl, 0.8 mM of MgCl2, 1.4 mM of CaCl2, 1.2 mM of Na2HPO4, 0.3 mM of NaH2PO4, pH 7.2)) was perfused at the flow rate of 1 μl/min under ambulatory conditions without anesthesia. 2,5-Piperazinedione,3,6-bis(phenylmethyl)-,(3S,6S) was suspended in 0.5% sodium carboxymethylcellulose (CMC-Na), and 2 mg/kg, 20 mg/kg, and 200 mg/kg were orally administered for 14 consecutive days. The amount of […] in 15 μl of perfusion liquid collected immediately before the final oral administration and every 30 minutes after the oral administration was quantitatively determined by HPLC-ECD. The results obtained within the period from 1 hour before the oral administration to 3 hours after the oral administration are shown in FIG. 1, where the time immediately before the oral administration of the test sample is set to 0 minute.

[3] = tested on: rats with scopolamine-induced impairment of learning; assay: Radial maze test using rats with scopolamine-induced impairment of learning; assay type: in vivo, rat; conditions: 200 mg/kg oral, scopolamine 0.5 mg/kg i.p., 8-direction radial maze
Method: Scopolamine is a non-selective competitive antagonist of muscarinic acetylcholine receptors. Laboratory animals with scopolamine-induced impairment of learning are widely used as a memory disorder model.
Using SD male rats which were 7 weeks of age, practice training was conducted while the rats were under food deprivation, and thereafter a main test was conducted.
Food was placed at the end of each arm of an 8-direction radial maze, and an animal was placed on a platform at the center of the maze. Completion of one trial was when the animal finished acquiring food from all arms or when 10 minutes elapsed since the animal was placed on the platform. The training was conducted once a day. “Correct choice” was defined as visiting an unselected arm in the trial, and “wrong choice” was defined as visiting an arm from where food had already been acquired.
2,5-Piperazinedione,3,6-bis(phenylmethyl)-,(3S,6S) was suspended in 0.5% CMC-Na, and 20 mg/kg and 200 mg/kg were orally administered to the rats which attained the standard in the above practice training trials. Ten minutes after the oral administration, 0.5 mg/kg of scopolamine was intraperitoneally administered. Thirty minutes after the intraperitoneal administration of scopolamine, an 8-direction radial maze test was conducted, and the number of wrong choices and the time taken for the […] to acquire all food were counted. […]

mice [4] = assay: Mice micronucleus test; assay type: in vivo
rats = assay type: in vivo; conditions: 28-day repeated dose
[5] = tested on: loser mice (mice in a depressive state); assay: Morris water maze test with mice in a depressive state (loser mice); assay type: in vivo, mouse; conditions: loser C57BL/6 mice
Method: The active ingredient of the agents of the present invention has antidepressive action. Antidepressive action as SSRI may be measured by a method described in a published document (Exp Anim, 59(2), 191-197, 2010). Specifically, first, a Morris water maze test is conducted for 8 days using mice.
The active ingredient of the agents of the present invention has learning motivation improving action. The Morris water maze test has been reported as a method for measuring spatial memory and learning (Learn. Motiv. 12, 239-260 (1981)). In this test, the time required to reach an escape platform (escape latency) is used as a parameter for evaluation, because mice will remember their surrounding scenery and swim in a pool filled with water to try to find and reach the escape platform, which is a goal, with their memory as a guide. Since mice used in a main test are chosen from those which were subjected to the Morris water maze test for 8 days and could not reach the escape platform within […], a reduction in the time required to reach the escape platform can be regarded as an improvement in learning motivation.
Antidepressive action was measured in accordance with a published document (Exp Anim, 59(2), 191-197, 2010). […]

AChE = AChE (Homo sapiens, UniProt P22303); assay: AChE inhibitory action with MATP+ substrate; assay type: biochemical; conditions: absorbance at 412 nm, read-out: concentration (IC50) required for 50% inhibition of AChE
Chain of AChE (P22303 32-614): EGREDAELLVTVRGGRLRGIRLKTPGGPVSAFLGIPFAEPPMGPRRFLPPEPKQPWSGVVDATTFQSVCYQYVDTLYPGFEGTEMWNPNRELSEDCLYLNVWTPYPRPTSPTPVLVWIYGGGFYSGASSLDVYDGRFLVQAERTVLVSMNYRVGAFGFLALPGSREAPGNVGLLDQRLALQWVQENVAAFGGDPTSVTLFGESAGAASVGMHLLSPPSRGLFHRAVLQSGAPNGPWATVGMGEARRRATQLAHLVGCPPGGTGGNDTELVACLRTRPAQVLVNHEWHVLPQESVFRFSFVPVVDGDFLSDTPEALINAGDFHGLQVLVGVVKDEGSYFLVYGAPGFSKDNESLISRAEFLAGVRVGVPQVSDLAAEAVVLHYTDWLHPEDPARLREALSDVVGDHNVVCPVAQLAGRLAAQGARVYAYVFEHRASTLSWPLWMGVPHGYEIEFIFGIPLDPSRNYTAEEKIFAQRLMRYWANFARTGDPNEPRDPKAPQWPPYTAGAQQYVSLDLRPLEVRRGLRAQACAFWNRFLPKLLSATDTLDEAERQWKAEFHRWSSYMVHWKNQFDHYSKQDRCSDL
Method: (§1) The active ingredient of the agents of the present invention has AChE inhibitory action. AChE inhibitory action may be measured with MATP+ (1,1-dimethyl-4-acetylthiomethylpiperidine), which is a substrate having high selectivity for AChE (Biol Pharma Bull, 33(4), 702-706, 2010). Specifically, AChE is reacted with MATP+, and measurement is conducted using as an indicator a change in absorbance at 412 nm associated with reaction of detection reagent DNTB (5,5′-dithiobis(2-nitrobenzoic acid)).
as §1, with “AChE” for “The active ingredient of the agents of the present invention has AChE inhibitory action. AChE”, “action was” for “action may be”, “AChE was” for “AChE is”, “measurement was” for “measurement is”

[6] = Chromosome aberration test
mice [7] = assay: Single-dose acute toxicity test; assay type: in vivo, mouse; conditions: 2 g/kg single dose
[8] = listed as active ingredient of the agents of the present invention

O=C1N[C@@H](Cc2ccccc2)C(=O)N[C@H]1Cc1ccccc1 [2,5-piperazinedione,3,6-bis(phenylmethyl)-,(3S,6S)]
increase of concentration of acetylcholine in the hippocampus [1]: 2.5 fold
increase of concentration of acetylcholine in the hippocampus [1, 8]: about 2.5 fold
concentration of serotonin in the prefrontal region ([2]; male SD rats, 20 mg/kg oral, 14 consecutive days): increased significantly
concentration of serotonin in the prefrontal region ([2]; male SD rats, 200 mg/kg oral, 14 consecutive days): increased significantly
concentration of serotonin in the prefrontal region ([2]; normal rats, oral for 2 weeks, across doses): increased dose-dependently and significantly
percentage of correct choices [3]: improved significantly
percentage of correct choices [3, 8]: significantly improved
mutagenicity in mice micronucleus test (mice [4]): no mutagenicity
no-observable-effect level (rats): ≥ 10 mg/kg/day
escape latency ([5]; oral 0.2 mg/kg or more): reduced significantly
escape latency ([5]; oral 0.02, 0.2, 2 and 20 mg/kg, dose dependence): dose-dependent, significant reduction; also recorded: reduced dose-dependently
IC50 (AChE): 3.4 µM
mutagenicity in Ames test (Ames test): no mutagenicity
mutagenicity in chromosome aberration test [6]: no mutagenicity
toxicity in single-dose acute toxicity test (mice [7]): no toxicity
